Patent US12390437B2, “Itaconic acid derivatives and uses thereof intreating an inflammatory disease or a disease associated with an undesirable immune response” (Sitryx Therapeutics Limited, priority 2019, dated 2025)

How the values were obtained:
[1] = system: IL-1β cytokine output from THP-1s; assay: THP-1 AlphaLISA IL-1β cytokine assay; type: cell-based, human; details: Homo sapiens, THP-1, PMA-differentiated THP-1 cells, LPS 24 hr then Nigericin 1 hour; read-out: IL-1β (IC50)
In short: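 Cells are differentiated with PMA over 72 h, switched to 1% FBS medium and treated with compound for 30 min before LPS stimulation for 24 h. Nigericin is added for a final hour, and secreted cytokine is measured by AlphaLISA, with IC50 fitted from percent inhibition.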

NRF2 = NRF2 +/-GSH activation assay (DiscoverX PathHunter NRF2 translocation kit, U2OS cells); type: cell-based; details: Homo sapiens, GSH condition not stated in Table 5
Method: Measuring Compound Activation Effects on the Anti-Inflammatory Transcription Factor NRF2 in DiscoverX PathHunter NRF2 Translocation Kit
Potency and efficacy of compounds of formula (IW-1) against the target of interest to activate NRF2 (nuclear factor erythroid 2-related factor 2) were determined using the PathHunter NRF2 translocation kit (DiscoverX). The NRF2 translocation assay was run using an engineered recombinant cell line, utilising enzyme fragment complementation to determine activation of the Keap1-NRF2 protein complex and subsequent translocation of NRF2 into the nucleus. Enzyme activity was quantified using a chemiluminescent substrate consumed following the formation of a functional enzyme upon PK-tagged NRF2 translocation into the nucleus.
The assay was run under either +/−GSH (glutathione) conditions to determine the attenuating activities of GSH against target compounds.
Additionally, a defined concentration of dimethyl fumarate was used as the ‘High’ control to normalise test compound activation responses to.
U2OS PathHunter eXpress cells were thawed from frozen prior to plating. Following plating, U2OS cells were incubated for 24 hrs (37° C./5% CO2) in commercial kit provided cell medium.
Following 24 hrs of U2OS incubation, cells were directly treated with an appropriate final concentration of compound, for −GSH conditions, or for +GSH conditions, an intermediate plate containing 6× working concentrations of compound stocks was prepared in a 6 mM working concentration of GSH solution (solubilised in sterile PBS). Following a 30 minute compound-GSH pre-incubation (37° C./5% CO2) for +GSH treatment, plated U2OS cells were incubated with an appropriate final concentration of compound and GSH.
Following compound (+/−GSH) treatment, the U2OS plates were incubated for a further 6 hours (37° C./5% CO2) before detection reagent from the PathHunter NRF2 commercial kit was prepared and added to test plates according to the manufacturer's instructions. Subsequently, the luminescence signal detection in a microplate reader was measured (PHERAstar®, BMG Labtech).
Percentage activation was calculated by normalising the sample data to the high and low controls used within each plate (+/−DMF). Percentage activation/response was then plotted against compound concentration and the 50% activation concentration (EC50) was determined from the plotted concentration-response curve.

[2] = system: IL-6 cytokine output from THP-1s; assay: THP-1 AlphaLISA IL-6 cytokine assay; type: cell-based, human; details: Homo sapiens; PMA-differentiated THP-1 cells, LPS 24 hr then Nigericin 1 hour
Method: Measuring Inhibitory Effects on IL-1β and IL-6 Cytokine Output from THP-1s
The cytokine inhibition profiles of compounds of formula (IW-1) were determined in a differentiated THP-1 cell assay. All assays were performed in RPMI-1640 growth medium (Gibco), supplemented with 10% fetal bovine serum (FBS; Gibco), 1% penicillin-streptomycin and 1% sodium pyruvate unless specified otherwise. The IL-1β and IL-6 cytokine inhibition assays were each run in a background of differentiated THP-1 cells as described below. All reagents described were from Sigma-Aldrich unless specified otherwise. Compounds were prepared as 10 mM DMSO stocks.
THP-1 cells were expanded as a suspension up to 80% confluence in appropriate growth medium. Cells were harvested, suspended, and treated with an appropriate concentration of phorbol 12-myristate 13-acetate (PMA) over a 72 hr period (37° C./5% CO2).
Following 72 hrs of THP-1 cell incubation, cellular medium was removed and replaced with fresh growth media containing 1% of FBS. Working concentrations of compounds were prepared separately in 10% FBS treated growth medium and pre-incubated with the cells for 30 minutes (37° C./5% CO2). Following the 30 minute compound pre-incubation, THP-1s were treated with an appropriate concentration of LPS and the THP-1s were subsequently incubated for a 24 hr period (37° C./5% CO2). An appropriate final concentration of Nigericin was then dispensed into the THP-1 plates and incubated for 1 hour (37° C./5% CO2) before THP-1 supernatants were harvested and collected in separate polypropylene 96-well holding plates.
Reagents from each of the IL-1β and IL-6 commercial kits (Perkin Elmer) were prepared and run according to the manufacturer's instructions. Subsequently, fluorescence signal detection in a microplate reader was measured (EnVision® Multilabel Reader, Perkin Elmer).
Percentage inhibition was calculated per cytokine by normalising the sample data to the high and low controls used within each plate (+/−LPS respectively). Percentage inhibition was then plotted against compound concentration and the 50% inhibitory concentration (IC50) was determined from the resultant concentration-response curve.

[3] = Mouse pharmacokinetic study, intravenous dosing; type: in vivo; details: male, C57BL/6, mouse, iv, plasma, 10 mg/kg i.v., read-out: Parent compound concentration following intravenous administration
Method: Pharmacokinetic studies were carried out in 6-8-week-old male C57BL/6 mice having free access to food and water. Intravenous dosing was conducted at 10 mg/kg (5 mL/kg; vehicle: 10% DMSO-90% (25% HP-13-CD in water)) via tail vein injection, with sampling at 3 min, 8 min, 15 min, 30 min, 1, 2, 4, 6 and 8 hours, i.e., 9 time points in total (N=3/time point), using semi-serial bleeding for plasma. Oral compound administration, via gavage, was carried out at 100 mg/kg (10 mL/kg; vehicle: 5% DMSO-95% (0.5% HPMC+0.1% Tween 80 in water)), with sampling at 5 min, 15 min, 30 min, 1, 2, 4, 6, 8 and 24 hours, i.e., 9 time points in total (N=3/time point), using semi-serial bleeding for plasma.
For both intravenous and oral routes, the mice were restrained manually at the designated time points, with ca. 110 μL of blood being taken into K2EDTA tubes via the facial vein. Blood samples were put on ice and centrifuged to obtain plasma samples from which the concentration at each time point was measured by LC-MS/MS.

IC50 [1] [µM] | IC50 [2] [µM] | SMILES | further results
2.7 | 1.7 | C=C(CC(=O)OCCCCCCCC)C(=O)OC1CN(C(C)=O)C1 [Example 50, 1-(1-acetylazetidin-3-yl) 4-octyl 2-methylenesuccinate] | Emax (NRF2; U2OS, normalised to dimethyl fumarate 'High' control, read-out: NRF2 activation Emax): 225%; EC50 (NRF2; U2OS PathHunter cells, 6 hours, read-out: NRF2 activation EC50): 3.2 µM
24.1 | 23.5 | C=C(CC(=O)O[C@H](C)CCCCCC)C(=O)OC1CCOCC1 [Example 73, (R)-4-(octan-2-yl) 1-(tetrahydro-2H-pyran-4-yl) 2-methylenesuccinate] | 
11.9 | 13.5 | C=C(CC(=O)OCCCCCCCC)C(=O)OC(C)C(=O)O (centres unmarked) [Example 79, 2-((2-methylene-4-(octyloxy)-4-oxobutanoyl)oxy)propanoic acid] | 
34.2 | 96.9 | C=C(CC(=O)OCC(C)(C)C)C(=O)OCCC(=O)O [Example 83, 3-((2-methylene-4-(neopentyloxy)-4-oxobutanoyl)oxy)propanoic acid] | 
29.3 | 30.3 | C=C(CC(=O)OCCS(=O)(=O)c1ccc(C)cc1)C(=O)OCC(=O)O [Example 97, 2-((2-methylene-4-oxo-4-(2-tosylethoxy)butanoyl)oxy)acetic acid] | 
10 | 2.7 | C=C(CC(=O)OCCCCCCCC)C(=O)OCC(=O)N1CCN(C)CC1 [Example 107, 1-(2-(4-methylpiperazin-1-yl)-2-oxoethyl) 4-octyl 2-methylenesuccinate] | 
11.1 | 3.1 | C=C(CC(=O)OCCCCCCCC)C(=O)OCCC(=O)N1CCOCC1 [Example 108, 1-(3-morpholino-3-oxopropyl) 4-octyl 2-methylenesuccinate] | 
10.6 | 6.8 | C=C(CC(=O)OCCCCCCCC)C(=O)OCCC(=O)N(CC)CC [Example 109, 1-(3-(diethylamino)-3-oxopropyl) 4-octyl 2-methylenesuccinate] | 
8.5 | 4.4 | C=C(CC(=O)OCCCCCCCC)C(=O)OCCC(=O)NC [Example 110, 1-(3-(methylamino)-3-oxopropyl) 4-octyl 2-methylenesuccinate] | 
100 | 70.9 | C=C(CC(=O)OC1CCCCC1)C(=O)OC(C)C(=O)O (centres unmarked) [Example 111, 2-((4-(cyclohexyloxy)-2-methylene-4-oxobutanoyl)oxy)propanoic acid] | 
100 | 48.5 | C=C(CC(=O)OCC1CCC(F)(F)CC1)C(=O)OCC(=O)O [Example 113, 2-((4-((4,4-difluorocyclohexyl)methoxy)-2-methylene-4-oxobutanoyl)oxy)acetic Acid] | 
100 | 56.2 | C=C(CC(=O)OCCCOCC)C(=O)OCC(=O)O [Example 114, 2-((4-(3-ethoxypropoxy)-2-methylene-4-oxobutanoyl)oxy)acetic acid] | 
59.5 | 36.3 | C=C(CC(=O)OC1CC2CCC1C2)C(=O)OCC(=O)O (centres unmarked) [Example 115, 2-((4-(bicyclo[2.2.1]heptan-2-yloxy)-2-methylene-4-oxobutanoyl)oxy)acetic acid] | 
100 | 43.9 | C=C(CC(=O)OC1CCCCC1)C(=O)OCC(C)(C)C(=O)O [Example 117, 3-((4-(cyclohexyloxy)-2-methylene-4-oxobutanoyl)oxy)-2,2-dimethylpropanoic acid] | 
16.2 | 14 | C=C(CC(=O)OCCCCCC)C(=O)OCC(=O)NS(=O)(=O)N(C)C [Example 118, 1-(2-((N,N-dimethylsulfamoyl)amino)-2-oxoethyl) 4-hexyl 2-methylenesuccinate] | concentration at 0.05 h ([3]; time 0.05 h): 3050 ng/mL; concentration at 0.133 h ([3]; time 0.133 h): 161 ng/mL; concentration at 0.25 h ([3]; time 0.25 h): 8 ng/mL; concentration at 0.5 h ([3]; time 0.5 h): 2.4 ng/mL; concentration at 1 h ([3]; time 1 h): < 0.8 ng/mL; concentration at 2 h ([3]; time 2 h): < 0.8 ng/mL; concentration at 4 h ([3]; time 4 h): < 0.8 ng/mL; concentration at 6 h ([3]; time 6 h): < 0.8 ng/mL; concentration at 8 h ([3]; time 8 h): < 0.8 ng/mL
82.4 | 47.5 | C=C(CC(=O)OCCCCCC)C(=O)OCC(=O)NS(C)(=O)=O [Example 119, 4-hexyl 1-(2-(methylsulfonamido)-2-oxoethyl) 2-methylenesuccinate] | 
26.9 | 7.7 | C=C(CC(=O)OCCCCCC)C(=O)OCCC(=O)NS(C)(=O)=O [Example 120] | 
6.8 | 5.2 | C=C(C(=O)OCCS(C)(=O)=O)C(C)C(=O)OCCCCCCCC (centres unmarked) [Example 138, 4-(2-(methylsulfonyl)ethyl) 1-octyl 2-methyl-3-methylenesuccinate] | 
21.7 | 15.1 | C=C(C(=O)O[C@H]1CCOC1)C(C)C(=O)OCCCCCCCC (stereo partly drawn) [Example 139, 1-octyl 4-((S)-tetrahydrofuran-3-yl) 2-methyl-3-methylenesuccinate] | 
21.6 | 8.8 | C=C(CC(=O)OCCCCCCCC)C(=O)OC1CC(F)(F)C1 [Example 185, 1-(3,3-difluorocyclobutyl) 4-octyl 2-methylenesuccinate] | 

SMILES | IC50 [1] [µM] | IC50 [2] [µM] | further results
C=C(CC(=O)OC1CCC1)C(=O)OCC(=O)O [Example 116, 2-((4-cyclobutoxy-2-methylene-4-oxobutanoyl)oxy)acetic acid] | 100 | 60.4 | 
